Data on ten compounds can be found in patent US20070053934A1, “Polyvalent multimeric composition containing active polypeptides, pharmaceutical compositions and methods of using the same” (priority 2005, published 2007).

For data set [1], the system named is B. anthracis (Sterne 34F2). Conditions: mean of three experiments.
Data set [2] deals with fresh sheep erythrocytes. The data set is described as follows: Hemolysis assay HD50 (Examples 1B and 2). Format: cell-based. Conditions: red cells of sheep. How it is done:
Stock solutions of samples were prepared by the same procedure as in antibacterial assays. Hemolytic activity of monomeric peptides and multivalent ones were assessed on fresh sheep erythrocytes (Fitzgerald, Inc., MA) in 35 mM PBS buffer, 150 mM NaCl, pH 7.0. Peptide concentrations corresponding to 50% hemolysis were used as hemolytic dose (HD50) determined from dose-response curve (National Committee for Clinical Laboratory Standards. 2004, Methods for dilution antimicrobial susceptibility tests for bacteria that grow aerobically; sixth edition, approved standard M100-S14. National Committee for Clinical Laboratory Standards. Wayne, Pa.). Aliquots of cell suspension were mixed in eppendorf tubes with varying volumes of stocks and buffer for a total volume of 1 mL. Solutions containing same volume of DMSO without samples were used as control. These tubes were incubated at 37° C. for 1 hr, and then spun down at 3,000 rpm for 5 mins. The resulting supernatant was diluted by a factor of 40 in distilled water. The absorbances of the dilutions at 540 nm were measured in the Genesys 5 Spectrophotometer (Thermo Spectronic, Inc., NY). Zero hemolysis and 100% hemolysis controls were obtained by incubating the cells with buffer and 20% Tween, respectively. Hemolytic index (HI) was defined as HI=HD50/IC50. […]

In a further data set the test system is S Aureus (ATCC BAA-44). Conditions: mean of three experiments.
The test system of data set [3] is E. Coli (D31).
Another data set has as its system S. aureus (ATCC BAA-44). Conditions: ATCC BAA-44, 18 h.
Data set [4] relates to fresh sheep erythrocytes. Format: cell-based. Conditions: pH 7.2. As for the experimental part: Hemolytic activity of model peptides was assessed on fresh sheep erythrocytes (Fitzgerald Inc., Concord, Mass.). Peptide concentrations yielding 50% hemolysis were used as hemolytic dose (HD50) determined from dose-response curves (Oren, Z., and Y. Shai. 1997. Selective lysis of bacteria but not mammalian cells by diastereomers of melittin: Structure-function study. Biochem. 36:1826-1835). […] The resulting supernatant was diluted by a factor of 40 in distilled water. The absorbances of the supernatant at λ=540 nm (OD540) were measured in the UV Spectrophotometer. Zero hemolysis and 100% hemolysis controls were obtained by incubating the cells with buffer and 1% Triton-X, respectively. Hemolytic index (HI) was defined as HI=HD50/IC50.

Data set [5] has as its system E. Coli (D31). Conditions: read-out: IC50 E. coli; 50% inhibition of growth, 18 h; mean of three experiments.
Another data set has as its system HIV. The data set is described as follows: Inhibition of HIV infectivity by gp340-derived peptides. Conditions: peptide concentrations up to 10 ug/ml. Format: cell-based.
Data set [6] concerns HIV-1 attachment to and infection of H9 cells. The data set is described as follows: Viral attachment assay. The class given is cell-based. Conditions: for cell-associated virus (HIV-1 attachment to target cells): H9 cells, cell-associated p24 after virus exposure. How it is done:
FIG. 8. Effect of gp-340 or N-SRCR on HIV-1 attachment and infection of cells. The H9 cells were treated with increasing concentrations of gp-340 (A and B) or N-SRCR (C) before and during HIV-1 exposure. After 4 hours, the cells were extensively washed of virus and either treated with or without trypsin at room temperature for 10 min and lysed for total cell-associated p24 measurement or re-fed with fresh medium to continue culture for 4 days to determine infection (data only for gp-340 shown). The values were average of triplicate wells and bars represent standard errors.
0.5×10^6 H9 cells were pre-incubated with purified gp-340 ranging from 2 to 10 μg/ml, or N-SRCR at 0.5 μg/ml at 37° C. for 60 min before viral exposure at 50 ng/ml p24 at 37° C. for 3 hours. The exposed cells were washed repeatedly to remove unbound virus, either lysed for cell-associated viral p24 measurement, treated with trypsin for 5 min before lysis, or refed with culture medium and maintained in culture for an additional 4 days. Culture medium was collected, cleared of cellular debris, lysed and viral p24 was measured.

A further data set deals with HIV-1 NL4-3. The data set is described as follows: HIV inhibition assay, p24 readout. Conditions: H9 cells, p24 in culture supernatant.
Another data set relates to HIV-1 IIIB. The data set is described as follows: HIV inhibition assay, p24 readout.
A further data set relates to HIV-1 BaL. The data set is described as follows: HIV inhibition assay, p24 readout. Conditions: IL-2 stimulated human PBMCs, p24 in culture supernatant.
The subject of data set [7] is HIV-1 gp120MN V3 peptide P6283. Conditions: Ca++-dependent, ELISA. (In an ELISA, binding on a coated surface is turned into a signal by an enzyme label.)
A further data set has as its target gp120 (Human immunodeficiency virus type 1 group M subtype B, UniProt P03375). Conditions: read-out: Kd of gp340 binding to gp120; earlier studies of the applicants.
[8] abbreviates: H9 cells, p24 in culture supernatant.

Where a SMILES comes first, the peptide text is derived from it. Bridges are numbered along the chain shown (N, C = ends). Roman numbers before positions name the chains, in order. Where no end group is shown, it is not given here. Side-chain parts run from the residue outwards. [ ]: non-standard residue; d: D form. βAla = NCCC(=O)O

As for `CC(=O)N[C@@H](Cc1c[nH]c2ccccc12)C(=O)N[C@@H](CCCNC(=N)N)C(=O)N[C@@H](Cc1c[nH]c2ccccc12)C(=O)N[C@@H](CCCNC(=N)N)C(=O)NCCCC[C@H](NC(=O)[C@H](CCCNC(=N)N)NC(=O)[C@H](Cc1c[nH]c2ccccc12)NC(=O)[C@H](CCCNC(=N)N)NC(=O)[C@H](Cc1c[nH]c2ccccc12)NC(C)=O)C(=O)NCCCC[C@H](NC(=O)[C@H](CCCCNC(=O)[C@H](CCCNC(=N)N)NC(=O)[C@H](Cc1c[nH]c2ccccc12)NC(=O)[C@H](CCCNC(=N)N)NC(=O)[C@H](Cc1c[nH]c2ccccc12)NC(C)=O)NC(=O)[C@H](CCCNC(=N)N)NC(=O)[C@H](Cc1c[nH]c2ccccc12)NC(=O)[C@H](CCCNC(=N)N)NC(=O)[C@H](Cc1c[nH]c2ccccc12)NC(C)=O)C(=O)NCCC(N)=O` [(Ac—WRWR)4-lys2-Lys-Beta-Ala-NH2] (I: Ac-WRWRK([Arg-Trp-Arg-Trp-Ac])K[βAla]-NH2 / II: Ac-WRWRK([Arg-Trp-Arg-Trp-Ac]); amide I:6-II:C), the “Antimicrobial activity IC50” value in [1] was 15.5 µg/mL; in the data set with S Aureus (ATCC BAA-44) it was 12.5 µg/mL; with E. Coli (D31) [3], 9.5 µg/mL. Moreover, the “Hemolytic activity HD50” value in the data set with fresh sheep erythrocytes [2] turned out to be 137 µg/mL.

Consider `N=C(N)NCCC[C@H](NC(=O)[C@H](Cc1c[nH]c2ccccc12)NC(=O)[C@@H](N)CCCNC(=N)N)C(=O)N[C@@H](Cc1c[nH]c2ccccc12)C(N)=O` [(RW)2—NH2] (H-RWRW-NH2), for which the IC50 (in general, the midpoint of a concentration-inhibition curve) stood at 210 µM in the data set with S. aureus (ATCC BAA-44) and 730 µM in the data set on E. Coli (D31) [5]. Besides, the “HD50 Red blood cell” value in the data set with fresh sheep erythrocytes [4] stood at 3700 µM.

Regarding `N=C(N)NCCC[C@H](NC(=O)[C@H](Cc1c[nH]c2ccccc12)NC(=O)[C@H](CCCNC(=N)N)NC(=O)[C@H](Cc1c[nH]c2ccccc12)NC(=O)[C@H](CCCNC(=N)N)NC(=O)[C@H](Cc1c[nH]c2ccccc12)NC(=O)[C@H](CCCNC(=N)N)NC(=O)[C@H](Cc1c[nH]c2ccccc12)NC(=O)[C@@H](N)CCCNC(=N)N)C(=O)N[C@@H](Cc1c[nH]c2ccccc12)C(N)=O` [(RW)5—NH2], the IC50 with S. aureus (ATCC BAA-44) was 3.6 µM; in the data set on E. Coli (D31) [5], 6.2 µM. Further, the “HD50 Red blood cell” value in the data set on fresh sheep erythrocytes [4] came out at 76 µM.

In the case of `N=C(N)NCCC[C@H](N)C(=O)N[C@@H](Cc1c[nH]c2ccccc12)C(N)=O` [RW—NH2] (H-Arg-Trp-NH2), the IC50 in the data set with S. aureus (ATCC BAA-44) is 2100 µM; in the data set on E. Coli (D31) [5], 4300 µM. The “HD50 Red blood cell” value in the data set with fresh sheep erythrocytes [4] worked out at 8900 µM.

Turning to GRVEYLXBGSW (GRVEVLYRGSW) [11 mer], the “inhibition of HIV infectivity (anti-HIV activity)” value in the data set on HIV is given as “low, but measurable anti-HIV activity”.

In the case of “N-SRCR: recombinant N-terminal gp340 fragment: first SRCR domain and half of first SID, with His-6 and HSV gD tags, 35 kDa”, the “cell-associated virus (HIV-1 attachment to target cells)” value in data set [6] is listed as “did not effect viral attachment”. The “binding to immobilized gp120” value in the data set with HIV-1 gp120 (gp120 captured with antibody D7324, ELISA) was “shown to bind immobilized gp120”. Besides, the “binding to gp120 upon sCD4 treatment of gp120” value in the data set with HIV-1 gp120 (sCD4 pre-binding, detected by Ab-1527) is recorded as “significantly increased”. Besides, the “estimated ID90 for NL4-3” value in the data set with HIV-1 NL4-3 was 1.5 µg/mL. Also, in the data set on H9 cells, the “concentration not toxic to H9 cells” value is “up to 10 μg/ml”. Besides, in the data set on HIV-1 IIIB (setting [8]), the “ID75 for IIIB” value came out at 2 µg/mL and the “ID90 for IIIB” value was “not achieved”. For the same compound, the “estimated ID90 for BaL” value with HIV-1 BaL was 1.1 µg/mL. Also, the “binding to the peptide P6283” value in data set [7] is recorded as “comparable to binding of gp-340”.

As to QGRVEVLYRGSWGEVC [16 mer], the “inhibition of HIV infectivity (anti-HIV activity)” value with HIV is “only modest inhibition of HIV infectivity”.

On to RWRWRW-NH2 [(RW)3—NH2], for which the values for the IC50 with S. aureus (ATCC BAA-44) and with E. Coli (D31) [5] were 8 µM and 16 µM, respectively. In addition, the “HD50 Red blood cell” value with fresh sheep erythrocytes [4] turned out to be 210 µM.

Take RWRWRWRW-NH2 [(RW)4—NH2]: the figures for the IC50 with S. aureus (ATCC BAA-44) and in the data set on E. Coli (D31) [5] were 5.1 µM and 9.6 µM, respectively. The “HD50 Red blood cell” value with fresh sheep erythrocytes [4] came to 100 µM.

Consider “gp340: 340 kDa salivary agglutinin glycoprotein of the SRCR superfamily; recombinant or purified from saliva”, for which, in data set [6] (H9 cells cultured 4 days after exposure, p24), the “viral replication in the treated cells” value is on record as “significantly inhibited”. Besides, the “cell-associated virus (HIV-1 attachment to target cells)” value in [6] is reported as “not affected”. Also, the “blocking HIV-1 infection by expressed full length gp340” value in the data set with HIV-1 IIIB (culture supernatant of transfected 293 cells, compared with SAG from saliva) was “as active in blocking HIV-1 infection as SAG purified from human saliva”. Further, the Kd – broadly, the concentration at which binding is half-saturated – with gp120 is 0.0058 µM.
